In article PMC12808645 (Nature Communications, 2025):

What was measured:
NanY172A-Iav [1] = format: binding, Halyomorpha halys
NanY172F-Iav [2] = format: binding, Halyomorpha halys
NanY177A-Iav [3] = format: binding, Halyomorpha halys
Nan-Iav = format: cell-based, Halyomorpha halys
NanY177A-Iav [4] = assay: Whole-cell electrophysiology, NanY177A-Iav; format: cell-based, Halyomorpha halys
NanY177F-Iav [5] = format: binding, Halyomorpha halys
NanY177A-Iav [6] = format: binding, Halyomorpha halys; remark: listed apart in the source
NanY172A-Iav [7] = format: binding, Halyomorpha halys; remark: listed apart in the source
NanY172F-Iav [8] = format: binding, Halyomorpha halys; remark: listed apart in the source
NanY177F-Iav [9] = format: binding, Halyomorpha halys; remark: listed apart in the source

NC(=O)c1cccnc1 [NAM, nicotinamide]
raising of Ki for NAM relative to WT (NanY172A-Iav [1]): two orders of magnitude | increase of Ki for NAM relative to WT (NanY172F-Iav [2]): ~ 10 fold | lowering of NAM binding affinity relative to WT (NanY177A-Iav [3]): > 100 fold | Ki (NanY177A-Iav [3]; read-out: Ki NAM, competition with [3H]-AP, affinities exceeding 10 mM could not be accurately determined): > 10000 µM | effect on whole-cell current (Nan-Iav; 1 mM NAM, ±60 mV): robustly stimulated | desensitization and reversibility of evoked currents (Nan-Iav; prolonged or repeated application, washout): non-desensitizing upon prolonged or repeated application and are reversible upon washout | EC50 (Nan-Iav; read-out: apparent EC50): ~100 µM | NAM-induced channel activity (NanY177A-Iav [4]): abolishes | weaker NAM affinity than WT (NanY177F-Iav [5]): ~ 10 fold

C[C@]1(COC(=O)C2CC2)[C@@H]2C[C@H](O)[C@@]3(C)Oc4cc(-c5cccnc5)oc(=O)c4[C@H](O)[C@@H]3[C@@]2(C)CC[C@@H]1OC(=O)C1CC1 [[^3H]-AP]
greater [3H]-AP Kd than WT (NanY177A-Iav [6]): ~ 200 fold | increase in [3H]-AP Kd relative to WT (NanY172A-Iav [7]): ~ 100 fold | difference in [3H]-AP Kd relative to WT (NanY172F-Iav [8]): 3 fold | [3H]-AP Kd compared with WT (NanY177F-Iav [9]): similar

N.N.N.N.N.N.N.N.N.N.N.N.N.N.[Cl-].[Cl-].[Cl-].[Cl-].[Cl-].[Cl-].[O-2].[O-2].[Ru+3].[Ru+3].[Ru+4] [ruthenium red]
effect on AP-elicited current (Nan-Iav; pore blocker): inhibited

[Ca+2] [Ca^2+]
% inhibition of inward current (Nan-Iav): ~ 50% | % inhibition of outward current (Nan-Iav): ~ 20%
